From publication PMC8883573, “New Insights Into the Function of Flavohemoglobin in Mycobacterium tuberculosis: Role as a NADPH-Dependent Disulfide Reductase and D-Lactate-Dependent Mycothione Reductase” (Frontiers in Cellular and Infection Microbiology, 2022)

Tests used:
trxB = trxB (Mycobacterium tuberculosis, UniProt P9WHH1); test: DTNB reduction, absorbance at […] nm; format: biochemical; settings: 5 mM DTNB, 250 µM NADPH, 100 mM potassium phosphate pH 7.0, 2 mM EDTA, 25 °C
[1] = tested on: O=C(O)c1cc(SSc2ccc([N+](=O)[O-])c(C(=O)O)c2)ccc1[N+](=O)[O-]; test: purified protein; format: biochemical, Mycolicibacterium smegmatis; settings: pH 7.0

Chain of trxB (P9WHH1 2-335): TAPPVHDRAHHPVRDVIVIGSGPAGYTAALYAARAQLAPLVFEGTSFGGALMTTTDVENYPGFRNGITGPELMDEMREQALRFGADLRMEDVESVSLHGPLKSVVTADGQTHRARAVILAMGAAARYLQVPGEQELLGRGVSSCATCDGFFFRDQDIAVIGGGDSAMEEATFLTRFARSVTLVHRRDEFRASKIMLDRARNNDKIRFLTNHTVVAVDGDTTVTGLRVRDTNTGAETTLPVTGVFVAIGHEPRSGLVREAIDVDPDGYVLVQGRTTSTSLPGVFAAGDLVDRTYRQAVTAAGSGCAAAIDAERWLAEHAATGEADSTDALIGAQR

O=C(O)c1cc(SSc2ccc([N+](=O)[O-])c(C(=O)O)c2)ccc1[N+](=O)[O-] [DTNB, 5,5’-dithiobis-(2-nitrobenzoic acid)]
DTNB reduction, absorbance at 412 nm (trxB): NADPH-dependent reduction of DTNB by MtbFHb, MsFHbII, and trxB

NC(=O)C1=CN([C@@H]2O[C@H](COP(=O)(O)OP(=O)(O)OC[C@H]3O[C@@H](n4cnc5c(N)ncnc54)[C@H](OP(=O)(O)O)[C@@H]3O)[C@@H](O)[C@H]2O)C=CC1 [NADPH]
DTNB reduction, absorbance at 412 nm (trxB; electron donor for DTNB reduction): NADPH-dependent reduction of DTNB by MtbFHb, MsFHbII, and trxB

MsFHbII (Mycolicibacterium smegmatis MC2 155)
Km [1]: 93.7 ± 7.6 µM
